In ChEMBL document CHEMBL1909046, “DrugMatrix in vitro pharmacology data”:

Experiments:
[1] = target: Epidermal growth factor receptor (Homo sapiens, UniProt P00533); assay: DRUGMATRIX: Protein Tyrosine Kinase, EGF Receptor enzyme inhibition (substrate: Poly(Glu:Tyr)); assay type: cell-based, Insect cells; conditions: Not Active = under 50% inhibition at 10 µM
[2] = target: Protein kinase C alpha type (Homo sapiens, UniProt P17252); assay type: cell-based; conditions: sf9;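 also: inhibition of PKCalpha kinase activity measured in an enzyme assay with histone as the phosphorylation substrate; in other assays of this panel Not Active means under 50% inhibition at 10 µM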
Insulin receptor = Insulin receptor (Rattus norvegicus, UniProt P15127); assay type: cell membranes, Wistar, Liver, Membrane; also: in other assays of this panel Not Active means under 50% inhibition at 10 µM
Sequence of Insulin receptor (P15127 27-759 limits assumed): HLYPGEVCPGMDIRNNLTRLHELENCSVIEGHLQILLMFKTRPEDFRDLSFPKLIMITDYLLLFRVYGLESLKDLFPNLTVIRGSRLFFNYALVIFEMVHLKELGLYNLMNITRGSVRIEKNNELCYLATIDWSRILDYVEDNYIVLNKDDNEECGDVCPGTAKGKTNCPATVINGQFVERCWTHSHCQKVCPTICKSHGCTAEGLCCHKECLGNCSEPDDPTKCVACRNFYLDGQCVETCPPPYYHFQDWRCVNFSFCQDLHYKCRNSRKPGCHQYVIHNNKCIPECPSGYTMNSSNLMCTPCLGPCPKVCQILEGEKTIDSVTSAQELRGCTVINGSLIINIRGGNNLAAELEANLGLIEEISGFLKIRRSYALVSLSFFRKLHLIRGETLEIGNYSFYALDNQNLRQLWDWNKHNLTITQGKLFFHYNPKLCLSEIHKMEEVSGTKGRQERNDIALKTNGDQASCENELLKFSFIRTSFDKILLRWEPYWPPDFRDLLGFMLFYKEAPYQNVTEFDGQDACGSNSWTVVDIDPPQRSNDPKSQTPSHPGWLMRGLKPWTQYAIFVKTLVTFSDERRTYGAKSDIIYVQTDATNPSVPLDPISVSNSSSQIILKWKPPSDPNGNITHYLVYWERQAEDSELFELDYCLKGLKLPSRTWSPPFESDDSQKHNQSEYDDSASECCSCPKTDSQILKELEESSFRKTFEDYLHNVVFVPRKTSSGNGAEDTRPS
Sequence of Insulin receptor (P15127 764-1383 limits assumed): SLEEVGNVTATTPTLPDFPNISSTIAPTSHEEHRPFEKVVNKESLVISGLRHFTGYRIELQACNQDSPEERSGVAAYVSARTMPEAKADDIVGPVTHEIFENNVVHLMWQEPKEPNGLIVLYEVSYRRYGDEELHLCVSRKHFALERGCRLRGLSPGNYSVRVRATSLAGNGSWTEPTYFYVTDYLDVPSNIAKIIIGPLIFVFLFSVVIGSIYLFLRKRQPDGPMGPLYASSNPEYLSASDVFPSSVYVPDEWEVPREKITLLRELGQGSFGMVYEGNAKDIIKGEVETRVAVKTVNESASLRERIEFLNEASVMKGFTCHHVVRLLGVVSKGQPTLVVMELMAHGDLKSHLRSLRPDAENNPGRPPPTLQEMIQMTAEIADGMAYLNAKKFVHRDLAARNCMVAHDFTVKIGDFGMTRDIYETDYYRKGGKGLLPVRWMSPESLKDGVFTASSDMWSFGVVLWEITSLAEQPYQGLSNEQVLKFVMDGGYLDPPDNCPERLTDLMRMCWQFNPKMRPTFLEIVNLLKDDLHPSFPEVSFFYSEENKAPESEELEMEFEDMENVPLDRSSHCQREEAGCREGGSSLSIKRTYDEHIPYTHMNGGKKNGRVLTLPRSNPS

[3] = target: Matrix metalloproteinase-9 (Homo sapiens, UniProt P14780); assay: biochemical; assay type: cell-based;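 also: inhibition of isolated MMP-9 enzyme activity toward a synthetic peptide substrate, from the DrugMatrix protease screening panel; in other assays of this panel Not Active means under 50% inhibition at 10 µM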
Sequence of Matrix metalloproteinase-9 (P14780 whole entry): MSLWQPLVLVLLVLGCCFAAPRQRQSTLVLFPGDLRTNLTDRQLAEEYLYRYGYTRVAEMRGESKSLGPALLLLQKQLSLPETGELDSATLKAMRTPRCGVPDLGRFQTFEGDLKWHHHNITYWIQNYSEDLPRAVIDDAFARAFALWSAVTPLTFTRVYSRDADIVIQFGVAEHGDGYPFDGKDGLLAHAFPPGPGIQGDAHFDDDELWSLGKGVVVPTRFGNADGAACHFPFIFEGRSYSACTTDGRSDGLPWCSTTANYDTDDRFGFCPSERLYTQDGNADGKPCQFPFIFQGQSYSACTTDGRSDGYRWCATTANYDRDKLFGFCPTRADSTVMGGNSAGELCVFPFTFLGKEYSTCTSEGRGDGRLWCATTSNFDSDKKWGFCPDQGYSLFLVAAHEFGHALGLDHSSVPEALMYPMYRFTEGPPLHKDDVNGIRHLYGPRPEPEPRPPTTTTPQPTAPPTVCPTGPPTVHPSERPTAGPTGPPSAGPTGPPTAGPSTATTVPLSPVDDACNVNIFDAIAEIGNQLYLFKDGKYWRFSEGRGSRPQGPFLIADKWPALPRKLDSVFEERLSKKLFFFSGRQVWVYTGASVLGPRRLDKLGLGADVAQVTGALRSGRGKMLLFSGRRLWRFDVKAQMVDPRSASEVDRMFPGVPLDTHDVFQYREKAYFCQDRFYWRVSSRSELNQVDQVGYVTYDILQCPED

[4] = target: Sodium-dependent dopamine transporter (Homo sapiens, UniProt Q01959); assay: DRUGMATRIX: Dopamine Transporter radioligand binding (ligand: [125I] RTI-55); assay type: cell membranes, CHO-K1, Membrane; conditions: cho-k1; Not Active = under 50% inhibition at 10 µM
Sequence of Sodium-dependent dopamine transporter (Q01959 whole entry): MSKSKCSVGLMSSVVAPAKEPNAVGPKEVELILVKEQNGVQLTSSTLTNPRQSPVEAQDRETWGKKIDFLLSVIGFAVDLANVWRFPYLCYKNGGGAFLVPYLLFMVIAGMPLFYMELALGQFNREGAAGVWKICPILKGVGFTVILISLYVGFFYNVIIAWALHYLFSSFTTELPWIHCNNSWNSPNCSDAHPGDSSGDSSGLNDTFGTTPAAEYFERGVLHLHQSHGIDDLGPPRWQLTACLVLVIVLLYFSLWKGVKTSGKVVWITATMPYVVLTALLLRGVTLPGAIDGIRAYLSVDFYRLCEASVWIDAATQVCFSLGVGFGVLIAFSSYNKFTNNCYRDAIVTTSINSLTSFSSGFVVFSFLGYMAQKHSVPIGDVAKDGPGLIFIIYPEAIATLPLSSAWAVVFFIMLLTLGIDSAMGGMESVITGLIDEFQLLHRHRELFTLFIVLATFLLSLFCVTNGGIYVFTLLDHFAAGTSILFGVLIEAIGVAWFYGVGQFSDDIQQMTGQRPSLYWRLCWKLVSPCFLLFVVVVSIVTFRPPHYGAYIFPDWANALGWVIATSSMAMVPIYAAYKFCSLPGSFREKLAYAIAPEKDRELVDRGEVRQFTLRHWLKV

[5] = target: Beta-2 adrenergic receptor (Homo sapiens, UniProt P07550); assay: DRUGMATRIX: Adrenergic beta2 radioligand binding (ligand: [3H] CGP-12177); assay type: cell membranes, Membrane; conditions: cho; Not Active = under 50% inhibition at 10 µM
Sequence of Beta-2 adrenergic receptor (P07550 whole entry): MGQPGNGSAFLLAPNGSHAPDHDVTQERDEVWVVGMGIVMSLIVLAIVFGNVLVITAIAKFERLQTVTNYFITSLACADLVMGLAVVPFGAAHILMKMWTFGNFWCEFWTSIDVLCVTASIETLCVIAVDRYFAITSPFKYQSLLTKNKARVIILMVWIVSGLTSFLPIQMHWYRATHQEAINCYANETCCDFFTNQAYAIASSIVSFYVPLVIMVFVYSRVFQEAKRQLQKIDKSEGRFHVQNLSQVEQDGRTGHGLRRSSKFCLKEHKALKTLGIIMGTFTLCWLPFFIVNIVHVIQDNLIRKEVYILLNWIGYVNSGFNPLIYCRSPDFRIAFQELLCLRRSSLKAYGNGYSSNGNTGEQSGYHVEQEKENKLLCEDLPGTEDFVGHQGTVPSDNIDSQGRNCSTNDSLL

Sequence of Epidermal growth factor receptor (P00533 whole entry): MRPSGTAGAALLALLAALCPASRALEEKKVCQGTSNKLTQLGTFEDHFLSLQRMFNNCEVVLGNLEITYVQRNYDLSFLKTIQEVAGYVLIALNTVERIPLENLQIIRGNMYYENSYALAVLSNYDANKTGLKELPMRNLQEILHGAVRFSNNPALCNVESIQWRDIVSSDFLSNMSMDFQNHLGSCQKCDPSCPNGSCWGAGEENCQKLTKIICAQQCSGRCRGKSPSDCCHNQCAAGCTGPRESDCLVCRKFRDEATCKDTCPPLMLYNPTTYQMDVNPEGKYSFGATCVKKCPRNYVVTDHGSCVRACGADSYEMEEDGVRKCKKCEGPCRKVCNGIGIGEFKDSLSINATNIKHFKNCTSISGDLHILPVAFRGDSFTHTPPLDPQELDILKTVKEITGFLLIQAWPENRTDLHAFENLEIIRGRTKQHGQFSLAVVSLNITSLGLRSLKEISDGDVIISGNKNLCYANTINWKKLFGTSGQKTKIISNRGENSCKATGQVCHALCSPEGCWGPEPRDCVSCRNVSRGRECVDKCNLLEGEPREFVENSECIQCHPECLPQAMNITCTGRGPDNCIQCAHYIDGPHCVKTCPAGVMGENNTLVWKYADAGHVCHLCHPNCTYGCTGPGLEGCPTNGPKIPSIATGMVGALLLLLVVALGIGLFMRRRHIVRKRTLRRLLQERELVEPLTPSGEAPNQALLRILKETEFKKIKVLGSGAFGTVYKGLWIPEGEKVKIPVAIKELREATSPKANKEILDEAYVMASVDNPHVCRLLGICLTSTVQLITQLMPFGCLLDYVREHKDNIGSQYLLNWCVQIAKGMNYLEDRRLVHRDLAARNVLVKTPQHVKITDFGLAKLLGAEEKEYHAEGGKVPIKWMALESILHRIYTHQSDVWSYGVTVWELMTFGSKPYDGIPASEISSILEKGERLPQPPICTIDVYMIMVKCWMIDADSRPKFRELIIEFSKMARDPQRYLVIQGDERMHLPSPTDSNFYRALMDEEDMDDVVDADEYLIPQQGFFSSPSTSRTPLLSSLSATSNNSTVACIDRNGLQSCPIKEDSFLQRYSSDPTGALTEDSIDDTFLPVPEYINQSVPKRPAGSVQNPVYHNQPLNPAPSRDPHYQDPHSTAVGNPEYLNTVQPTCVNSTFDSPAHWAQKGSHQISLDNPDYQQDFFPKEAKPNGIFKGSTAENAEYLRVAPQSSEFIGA

SMILES: C=C(C)C1(O)OC(=O)C=C1OC (stereo unspecified) [PENICILLIC ACID]
- IC50 ([1]; insect cells): Not Active
- IC50 [2]: Not Active
- IC50 (Insulin receptor): Not Active
- IC50 [3]: Not Active
- IC50 [4]: Not Active
- IC50 [5]: Not Active

SMILES: CN(Cc1ccc(C(C)(C)C)cc1)Cc1cccc2ccccc12 [BUTENAFINE]
- IC50 ([1]; insect cells): Not Active
- IC50 [2]: Not Active
- IC50 (Insulin receptor): Not Active
- IC50 [3]: Not Active
- IC50 [4]: Not Active
- IC50 [5]: Not Active

SMILES: NC(=O)N1c2ccccc2CCc2ccccc21
- IC50 ([1]; insect cells): Not Active
- IC50 [2]: Not Active
- IC50 (Insulin receptor): Not Active
- IC50 [3]: Not Active
- IC50 [4]: Not Active
- IC50 [5]: Not Active

SMILES: Cc1onc(-c2ccccc2Cl)c1C(=O)N[C@@H]1C(=O)N2[C@@H]1SC(C)(C)[C@@H]2C(=O)O [CLOXACILLIN]
- IC50 ([1]; insect cells): Not Active
- IC50 [2]: Not Active
- IC50 (Insulin receptor): Not Active
- IC50 [3]: Not Active
- IC50 [4]: Not Active
- IC50 [5]: Not Active

SMILES: COc1ccc(C[C@H]2NC[C@H](O)[C@H]2OC(C)=O)cc1 [ANISOMYCIN]
- IC50 ([1]; insect cells): Not Active
- Ki ([1]; insect cells): Not Active
- IC50 [2]: Not Active
- Ki [2]: Not Active
- IC50 (Insulin receptor): Not Active
- Ki (Insulin receptor): Not Active
- IC50 [3]: Not Active
- Ki [3]: Not Active
- IC50 [4]: Not Active
- Ki [4]: Not Active
- IC50 [5]: Not Active
- Ki [5]: Not Active

SMILES: CCn1cc(C(=O)O)c(=O)c2cc(F)c(N3CCNCC3)cc21 [NORFLOXACIN]
- IC50 ([1]; insect cells): Not Active
- IC50 [2]: Not Active
- IC50 (Insulin receptor): Not Active
- IC50 [3]: Not Active
- IC50 [4]: Not Active
- IC50 [5]: Not Active

SMILES: CCC1(c2ccc(N)cc2)CCC(=O)NC1=O (stereo unspecified) [AMINOGLUTETHIMIDE]
- IC50 ([1]; insect cells): Not Active
- IC50 [2]: Not Active
- IC50 (Insulin receptor): Not Active
- IC50 [3]: Not Active
- IC50 [4]: Not Active
- IC50 [5]: Not Active

SMILES: Cc1ccc(/N=C/N(C)/C=N/c2ccc(C)cc2C)c(C)c1 [AMITRAZ]
- IC50 ([1]; insect cells): Not Active
- IC50 [2]: Not Active
- IC50 (Insulin receptor): Not Active
- IC50 [3]: Not Active
- IC50 [4]: Not Active
- IC50 [5]: Not Active

SMILES: Cc1ccc(N(CC2=NCCN2)c2cccc(O)c2)cc1 [PHENTOLAMINE]
- IC50 ([1]; insect cells): Not Active
- IC50 [2]: Not Active
- IC50 (Insulin receptor): Not Active
- IC50 [3]: Not Active
- IC50 [4]: Not Active
- IC50 [5]: Not Active

SMILES: CNNCc1ccc(C(=O)NC(C)C)cc1 [PROCARBAZINE]
- IC50 ([1]; insect cells): Not Active
- IC50 [2]: Not Active
- IC50 (Insulin receptor): Not Active
- IC50 [3]: Not Active
- IC50 [4]: Not Active
- IC50 [5]: Not Active

SMILES: CN(C)c1nc(N(C)C)nc(N(C)C)n1 [ALTRETAMINE]
- IC50 ([1]; insect cells): Not Active
- IC50 [2]: Not Active
- IC50 (Insulin receptor): Not Active
- IC50 [3]: Not Active
- IC50 [4]: Not Active
- IC50 [5]: Not Active

SMILES: OC(Cn1cncn1)(Cn1cncn1)c1ccc(F)cc1F [FLUCONAZOLE]
- IC50 ([1]; insect cells): Not Active
- IC50 [2]: Not Active
- IC50 (Insulin receptor): Not Active
- IC50 [3]: Not Active
- IC50 [4]: Not Active
- IC50 [5]: Not Active

SMILES: C[C@]12CCC(=O)C=C1CC[C@@H]1[C@@H]2CC[C@@]2(C)[C@H]1CC[C@]2(C)O [METHYLTESTOSTERONE]
- IC50 ([1]; insect cells): Not Active
- IC50 [2]: Not Active
- IC50 (Insulin receptor): Not Active
- IC50 [3]: Not Active
- IC50 [4]: Not Active
- IC50 [5]: Not Active

SMILES: O=c1oc2ccccc2c(O)c1Cc1c(O)c2ccccc2oc1=O [DICUMAROL]
- IC50 ([1]; insect cells): Not Active
- IC50 [2]: Not Active
- IC50 (Insulin receptor): Not Active
- IC50 [3]: Not Active
- IC50 [4]: Not Active
- IC50 [5]: Not Active

SMILES: N=C(N)NCCN1CCCCCCC1 [GUANETHIDINE]
- IC50 ([1]; insect cells): Not Active
- IC50 [2]: Not Active
- IC50 (Insulin receptor): Not Active
- IC50 [3]: Not Active
- IC50 [4]: Not Active
- IC50 [5]: Not Active

SMILES: Cc1cc(C2CCCCC2)n(O)c(=O)c1 [CICLOPIROX]
- IC50 ([1]; insect cells): Not Active
- IC50 [2]: Not Active
- IC50 (Insulin receptor): Not Active
- IC50 [3]: Not Active
- IC50 [4]: Not Active
- IC50 [5]: Not Active

SMILES: CN(C)CCCN1c2ccccc2Sc2ccc(Cl)cc21 [CHLORPROMAZINE]
- IC50 ([1]; read-out: IC50): 28.9 µM
- IC50 [2]: Not Active
- IC50 (Insulin receptor): Not Active
- IC50 [3]: Not Active
- IC50 [5]: Not Active

SMILES: CNCCCN1c2ccccc2CCc2ccccc21 [DESIPRAMINE]
- IC50 ([1]; insect cells): Not Active
- IC50 [2]: Not Active
- IC50 (Insulin receptor): Not Active
- IC50 [3]: Not Active

SMILES: CCOC(=O)C1=C(COCCN)NC(C)=C(C(=O)OC)C1c1ccccc1Cl (stereo unspecified) [AMLODIPINE]
- IC50 ([1]; insect cells): Not Active
- IC50 [2]: Not Active
- IC50 (Insulin receptor): Not Active
- IC50 [3]: Not Active
- IC50 [5]: Not Active
